Values joined by “and” are separate entries in the source; they are usually repeats but may differ in a detail not shown here. Equal entries are not always repeated.
Legend:
[1] = test system: ribitol, ribitol-5P and CDP-ribitol levels in heart and quadriceps; assay: LC/MS-MS quantification of ribitol, ribitol-5P and CDP-ribitol in muscle tissues of P448L mice; type: in vivo, mouse; conditions: 5% ribitol 1 month
Protocol: Ribitol was purchased from Sigma (A5502 Adonitol, ≥98%, Sigma, St. Louis) and dissolved in drinking water to the final concentration of 5% or 10%. […] mice aged at 4 weeks were treated with 5% ribitol drinking water for 1 month and […] mice aged at 7 weeks were treated with 5% ribitol drinking water for 3 months and 6 months. All the mice were randomly assigned to either treatment or control groups. And a minimum number of 4 mice were used for each group. No animal was excluded. […] female breeders were given 10% ribitol in drinking water during pregnancy, and pups continued to be treated with 10% ribitol in drinking water until they were euthanized at 19 weeks of age. Untreated age-matched […] and wild-type C57BL/6 mice were used as controls. The animals were terminated at the end of each treatment time point and tissues including heart, diaphragm, TA, quadriceps, liver, spleen and kidney were collected for analyses. Ribitol was purchased from Sigma (A5502). […] The supernatants were removed, transferred to individual wells of 96-well plate and analyzed by LC/MS-MS. […] The metabolites were analyzed using electrospray ionization mass spectrometry operated in positive ion mode, ESI+. Compounds concentration in tissue samples were determined based on standard curves prepared by serial dilutions (200-0.01 μM) of each of the compound in MeOH:ACN (1:1).

[2] = Serum ribitol measurement by LC/MS-MS; type: in vivo
Text: Ribitol was purchased from Sigma (A5502). Sera were collected, and blinded samples were placed in individual wells of a 96-well plate and analyzed by LC/MS-MS. An Applied Biosystems Sciex 4000 (Applied Biosystems; Foster City, Calif.) equipped with a Shimadzu HPLC (Shimadzu Scientific Instruments, Inc.: Columbia, Md.) and Leap auto-sampler (LEAP Technologies; Carrboro, N.C.) were used to detect ribitol from samples and synthetic compound. […] MeOH:ACN (1:1). The following gradient was used: 0-12 min, 5% buffer B; 13-14 min, 95% buffer B, 15-17 min, 5% buffer B. Under these conditions, ribitol eluted at 8.3 min. The metabolite was analyzed using electrospray ionization mass spectrometry operated in positive ion mode, ESI+. Compound concentrations in tissue samples were determined based on standard curves prepared by serial dilutions (200-0.01 μM) of the compound in MeOH:ACN (1:1).

[3] = 5% ribitol in drinking water (n = 4)

In the case of OC[C@@H](O)[C@@H](O)[C@@H](O)CO [ribitol], the “Levels of ribitol, ribitol-5P and CDP-ribitol vs untreated P448L” value ([1]; heart and quadricep) is reported as “increased levels”, the “CDP-ribitol levels, treated vs untreated” value ([1]; heart and quadriceps) is reported as “at least 4 fold” and the Mean serum ribitol [2, 3] is reported as 2355 ug ug/L. For the same molecule, the “Serum ribitol, individual animals” value [2, 3] was 924 ng/ml and 4221 ng/ml and 3184 ng/ml and 1092, ng/ml, the “Therapeutic serum concentration in excess of normal ribitol serum levels” value ([2]; about 10 mg/L vs normal serum level) was “roughly 1000 ×” and the “Tolerability at therapeutic serum concentration” value ([2]; serum about 10 mg/L) was “no observable side effects”.
